pEC50, pIC50: −log10 of the molar value.
Experiments:
[1] = tested on: ERK1/2 phosphorylation of p90RSK in HT29 cells; assay: pRSK MSD Assay in HT29 cells; type: cell-based; conditions: Homo sapiens, HT-29, read-out: ERK1/ERK2 PRSK MSD HT29 EC50
Method in brief: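 Phospho-RSK level, read by electrochemiluminescence on RSK-antibody-coated MSD plates with a phospho-RSK/Sulfo-tag detection pair, reports cellular ERK1/2 activity. HT29 cells, kept overnight in 0.1% FBS medium, were exposed to compound for 120 min at 37° C before lysis.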

MEK1 activated ERK1 = molecular target: T1, MEK1 activated ERK1 (Homo sapiens, UniProt P27361); assay: Omnia continuous-read kinase assay for potency against MEK1 activated ERK1; type: biochemical; conditions: MEK1 activated ERK1, ATP at KM; read-out: ERK1 Omnia WT ATP KM IC50
T1 construct: purchased Millipore (Billerica, Mass.) 14-439-K
Method in brief: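 Apparent IC50 came from initial reaction slopes (RFU vs time) plotted against log inhibitor with a variable-slope fit. Reactions were started with ERK1 (4 nM final) added to 50 μM ATP, roughly at its appKM, and 10 μM Sox-conjugated ST17 peptide in 20 mM Tris pH 7.5, 5 mM MgCl2. Fluorescence was monitored every 71 seconds.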

[2] = tested on: HT-29 cells (colorectal adenocarcinoma); assay: Inhibition of cancer cell proliferation, HT-29 (CellTiterGlo, 72 hours); type: cell-based; conditions: Homo sapiens
Protocol: Measurement of Inhibition of Cancer Cell Proliferation (HT-29/Colorectal Adenocarcinoma)
The following protocol used an HT-29 cell line, which cell line is a model for colorectal adenocarcinoma. HT-29 cells were split and 3000 cells in 100 μl of growth medium were added per well of a flat-bottom 96-well plate. A two-fold test compound solution in serum-free RPM1640 was made, starting at 5,000 nM. Then, 3-fold serial dilutions were made across the plate from well 1 to well 11. Well 12, the last well in a row on the plate, was left as untreated control. 100 μl compound solutions were then transferred to the wells, so the total volume of media was 200 μl per well. Plates were returned to a 37° C. incubator, and the cells were cultured for 72 hours. To measure cell proliferation after 72 hours, media was discarded from the plates, 50 μl/well of fresh medium was added, and 50 μl CellTiterGlo solution was added (Promega Cat#G7573). The plate was covered with a dark lid and incubated for 10 min. A white sealing tape was applied to the bottom of the plate, and the plate was read in a luminescence plate reader. […] A 2-fold serial dilution was used to generate 8 cell densities from 50,000-390 cells per well in 50 μl media. 50 μl CellTiterGlo was added per well, and the plate was read in a luminescence plate reader after 10 min. The reading was plotted vs. cell number to generate a standard curve and the equation of the curve fit. The compound-treated sample luminescence readings were converted to cell numbers using the curve-fit equation. The percent of inhibition, using untreated control as 100% growth, was then calculated. GI50 was then calculated by GraphPad Prism.

T1 sequence (P27361 whole entry): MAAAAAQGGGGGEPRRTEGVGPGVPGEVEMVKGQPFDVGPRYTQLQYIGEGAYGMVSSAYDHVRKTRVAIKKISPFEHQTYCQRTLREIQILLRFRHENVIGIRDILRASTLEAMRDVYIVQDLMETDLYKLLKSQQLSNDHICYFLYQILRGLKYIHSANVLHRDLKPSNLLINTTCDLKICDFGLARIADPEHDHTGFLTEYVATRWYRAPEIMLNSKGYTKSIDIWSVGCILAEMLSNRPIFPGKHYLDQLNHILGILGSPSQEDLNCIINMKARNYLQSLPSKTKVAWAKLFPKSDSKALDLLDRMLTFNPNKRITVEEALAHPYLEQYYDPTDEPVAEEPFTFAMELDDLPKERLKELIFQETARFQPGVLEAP

| SMILES | pEC50 [1] | pIC50 (MEK1 activated ERK1) | GI50 [2] [nM] |
| --- | --- | --- | --- |
| C=CC(=O)Nc1ccccc1Nc1nc(N[C@H]2CCCNC2)ncc1Cl [Compound I-126, (S)—N-(2-((5-chloro-2-(piperidin-3-ylamino)pyrimidin-4-yl)amino)phenyl)acrylamide] | 6.00 to 6.30 | 6.30 to 7.00 | 501 to 999 |
| C=CC(=O)Nc1ccccc1Nc1nc(NC2CCC(F)(F)CC2)ncc1Cl [Compound I-127, N-(2-((5-chloro-2-((4,4-difluorocyclohexyl)amino)pyrimidin-4-yl)amino)phenyl)acrylamide] | 6.30 to 7.00 | 6.30 to 7.00 | 101 to 500 |
| C=CC(=O)Nc1ccccc1Nc1nc(Nc2ccc(N(CC)C(C)=O)cc2OC)ncc1Cl [Compound I-155, N-(2-((5-chloro-2-((4-(N-ethylacetamido)-2-methoxyphenyl)amino)pyrimidin-4-yl)amino)phenyl)acrylamide] | < 6.00 | 6.30 to 7.00 | > 1000 |
| C=CC(=O)Nc1cc(OC)ccc1Nc1nc(Nc2ccc(N3CCCN(C(=O)OC(C)(C)C)CC3)cc2C#N)ncc1Cl [Compound I-156, tert-butyl 4-(4-((4-((2-acrylamido-4-methoxyphenyl)amino)-5-chloropyrimidin-2-yl)amino)-3-cyanophenyl)-1,4-diazepane-1-carboxylate] | 6.00 to 6.30 | 6.30 to 7.00 | > 1000 |
| C=CC(=O)Nc1cc(OC)ccc1Nc1nc(Nc2ccc(N(CC)C(C)=O)cc2C#N)ncc1Cl [Compound I-164, N-(2-((5-chloro-2-((2-cyano-4-(N-ethylacetamido)phenyl)amino)pyrimidin-4-yl)amino)-5-methoxyphenyl)acrylamide] | < 6.00 | 6.30 to 7.00 | > 1000 |
| C=CC(=O)Nc1cc(OC)ccc1Nc1nc(Nc2ccc3c(c2)CC(=O)N3CC)ncc1Cl [Compound I-166, N-(2-((5-chloro-2-((1-ethyl-2-oxoindolin-5-yl)amino)pyrimidin-4-yl)amino)-5-methoxyphenyl)acrylamide] | 6.30 to 7.00 | 6.30 to 7.00 | 101 to 500 |
| C=CC(=O)Nc1ccccc1Nc1nc(Nc2ccc(N(CCCN)C(C)=O)cc2OC)ncc1Cl [Compound I-167, N-(2-((2-((4-(N-(3-aminopropyl)acetamido)-2-methoxyphenyl)amino)-5-chloropyrimidin-4-yl)amino)phenyl)acrylamide] | < 6.00 | 6.30 to 7.00 | > 1000 |
| C=CC(=O)Nc1ccccc1Nc1nc(Nc2ccc(N(CCN)C(C)=O)cc2OC)ncc1Cl [Compound I-168, N-(2-((2-((4-(N-(2-aminoethyl)acetamido)-2-methoxyphenyl)amino)-5-chloropyrimidin-4-yl)amino)phenyl)acrylamide] | < 6.00 | 6.30 to 7.00 | > 1000 |
| C=CC(=O)Nc1ccccc1Nc1nc(Nc2ccc(N3CCC[C@@H]3C(N)=O)cc2C#N)ncc1Cl [Compound I-179, (R)-1-(4-((4-((2-acrylamidophenyl)amino)-5-chloropyrimidin-2-yl)amino)-3-cyanophenyl)pyrrolidine-2-carboxamide] | 6.00 to 6.30 | 6.30 to 7.00 | > 1000 |
| C=CC(=O)Nc1ccccc1Nc1nc(Nc2ccc(NC(=O)COC(C)=O)cc2OC)ncc1Cl [Compound I-183, 2-((4-((4-((2-acrylamidophenyl)amino)-5-chloropyrimidin-2-yl)amino)-3-methoxyphenyl)amino)-2-oxoethyl acetate] | 6.00 to 6.30 | 6.30 to 7.00 | > 1000 |
| C=CC(=O)Nc1ccccc1Nc1nc(Nc2ccc(NS(C)(=O)=O)cc2OC)ncc1Cl [Compound I-185, N-(2-((5-chloro-2-((2-methoxy-4-(methylsulfonamido)phenyl)amino)pyrimidin-4-yl)amino)phenyl)acrylamide] | 6.30 to 7.00 | 6.30 to 7.00 | 501 to 999 |
| C=CC(=O)Nc1ccccc1Nc1nc(Nc2ccc(NC(=O)CO)cc2OC)ncc1Cl [Compound I-186, N-(2-((5-chloro-2-((4-(2-hydroxyacetamido)-2-methoxyphenyl)amino)pyrimidin-4-yl)amino)phenyl)acrylamide] | 6.00 to 6.30 | 6.30 to 7.00 | > 1000 |
| C=CC(=O)Nc1ccccc1Nc1nc(Nc2ccc(F)cc2C)ncc1Cl [Compound I-209, N-(2-((5-chloro-2-((4-fluoro-2-methylphenyl)amino)pyrimidin-4-yl)amino)phenyl)acrylamide] | 6.30 to 7.00 | 6.30 to 7.00 | 501 to 999 |
| C=CC(=O)Nc1ccccc1Nc1nc(Nc2cc(C(N)=O)ccc2C)ncc1C [Compound I-224, 3-(4-(2-acrylamidophenylamino)-5-methylpyrimidin-2-ylamino)-4-methyl benzamide] | 6.30 to 7.00 | 6.30 to 7.00 | 101 to 500 |
| C=CC(=O)Nc1ccccc1Oc1nc(Nc2ccc(N3CCC[C@@H]3CO)cc2OC)ncc1C(N)=O [Compound I-263, (R)-4-(2-acrylamidophenoxy)-2-((4-(2-(hydroxymethyl)pyrrolidin-1-yl)-2-methoxyphenyl)amino)pyrimidine-5-carboxamide] | < 6.00 | 6.30 to 7.00 | > 1000 |
| C=CC(=O)Nc1ccccc1Oc1nc(NC(C)(C)C)ncc1C(N)=O [Compound I-267, 4-(2-acrylamidophenoxy)-2-(tert-butylamino)pyrimidine-5-carboxamide] | < 6.00 | 6.30 to 7.00 | > 1000 |
| C=CC(=O)Nc1ccccc1Nc1nc(Nc2cc(C(N)=O)c(OCCCNC(=O)CCCC(=O)NCCCOCCOCCOCCCNC(=O)CCCC[C@@H]3SC[C@@H]4NC(=O)N[C@@H]43)cc2C)ncc1Cl [Compound I-299, N^1-(3-(4-((4-((2-acrylamidophenyl)amino)-5-chloropyrimidin-2-yl)amino)-2-carbamoyl-5-methylphenoxy)propyl)-N^5-(15-oxo-19-((3aS,4S,6aR)-2-oxohexahydro-1H-thieno[3,4-d]imidazol-4-yl)-4,7,10-trioxa-14-azanonadecyl)glutaramide] | < 6.00 | 6.30 to 7.00 | > 1000 |
| C=CC(=O)Nc1ccccc1Nc1nc(NC2CCN(C(=O)CCCC(=O)NCCCOCCOCCOCCCNC(=O)CCCC[C@@H]3SC[C@@H]4NC(=O)N[C@@H]43)CC2)ncc1Cl [Compound I-300, 5-(4-((4-((2-acrylamidophenyl)amino)-5-chloropyrimidin-2-yl)amino)piperidin-1-yl)-5-oxo-N-(15-oxo-19-((3aS,4S,6aR)-2-oxohexahydro-1H-thieno[3,4-d]imidazol-4-yl)-4,7,10-trioxa-14-azanonadecyl)pentanamide] | < 6.00 | 6.30 to 7.00 | > 1000 |
| C=CC(=O)Nc1ccccc1Nc1nc(Nc2ccc(NC(=O)CCCC(=O)NCCCOCCOCCOCCCNC(=O)CCCC[C@H]3SC[C@H]4NC(=O)N[C@H]43)cc2OC)ncc1Cl [Compound I-301, N^1-(4-((4-((2-acrylamidophenyl)amino)-5-chloropyrimidin-2-yl)amino)-3-methoxyphenyl)-N^5-(15-oxo-19-((3aR,4R,6aS)-2-oxohexahydro-1H-thieno[3,4-d]imidazol-4-yl)-4,7,10-trioxa-14-azanonadecyl)glutaramide] | < 6.00 | 6.00 to 6.30 | > 1000 |
